Measured values as given in patent publication US20190352339A1, “PEPTIDE INHIBITOR OF TRANSMEMBRANE PORE FORMATION AND EFFLUXPUMP FUNCTION IN A SMALL MULTIDRUG RESISTANCE PROTEIN FROM PSEUDOMONAS AERUGINOSA” (priority 2017, published 2019).
Square brackets hold non-standard residues; d marks the D form. Peptide text beside a SMILES is read from it. Sar = CNCC(=O)O

Key:
[1] = system: human red blood cells (RBCs); format: cell-based; details: for minimal hemolytic concentration (MHC): red cells of human
Description: (§1) FIG. 4. (A) Proof-of-concept: Inhibition of Hsmr activity by an SMR TM4-mimic peptide. Hsmr-mediated efflux of the fluorescent toxicant ethidium bromide (EtBr) from E. coli cells upon treatment with a peptide derived from Hsmr TM4(85-105) [sequence shown]. Curves represent the change in EtBr fluorescence upon exiting the bacteria. Ac-A=acetyl-Ala. The black line indicates efflux by Hsmr in the absence of peptide; red line=efflux after addition of 1 μM TM4 peptide. The % efflux is compared in the black and red bars at the right. (B) Bioactivity profiles of designed SMR drug efflux inhibitor peptides. Four assays—EtBr efflux activity (Efflux), EtBr resensitization (ER), antimicrobial activity (AA), and hemolytic activity in human red blood cells (RBC) are depicted for linear peptides TM4(85-105) (left panel), and TM4(88-100) (centre); and stapled (S) peptide S-TM4(88-100)-N95 (right). Values for ER, AA and RBCs are given as the minimal inhibitory (MIC) or hemolytic concentration (MHC) (right axis).
As a necessary measure for any projected clinical applications of the designed inhibitors, hemolytic activity of peptides is assayed in human RBCs to confirm mammalian cell tolerance [Yin et al., 2012, J. Biol. Chem. 287, 7738-7745].

Hsmr = assay: EtBr efflux assay, E. coli expressing Hsmr; format: cell-based, Halobacterium salinarum; details: E. coli cells expressing Hsmr, EtBr fluorescence decay
Description: as §1
FIG. 5. (A) Ethidium bromide efflux from E. coli bacteria expressing Hsmr. Peptides were added to ethidium bromide (EtBr) treated cells and incubated for 1 hr. The fluorescence of EtBr drops as the toxin is effluxed from the cells. ‘No peptide’ (maximum efflux control) is depicted in black. The core sequences of the peptides studied are based on the consensus sequence in Table 1. Residues in red emphasize retention of the common SMR TM4-TM4 interface in pathogenic bacteria. (B) EtBr efflux from E. coli containing plasmid-borne SMR from P. aeruginosa, (Psmr), as mediated by peptide LIN (full sequence=Ac-A(Sar)3-^88IIGIALINAGVVV^100-KKK-NH2). This experiment was performed as described in FIG. 4. […]
EtBr efflux represents a rapid and validated means by which to screen for SMR-mediated resistance activity [Poulsen and Deber, 2012, Antimicrob. […] Upon its removal, EtBr efflux is monitored by fluorescence decay.

[2] = target: T1, SMR from P. aeruginosa (Psmr) (Pseudomonas aeruginosa, UniProt Q9HUH5); assay: EtBr efflux assay, E. coli containing plasmid-borne Psmr; format: cell-based; details: 8 μM peptide; FIG. 5B
T1 construct: expressed in transfected cells; host or cells: E. coli
T1 sequence (Q9HUH5 whole entry, looked up): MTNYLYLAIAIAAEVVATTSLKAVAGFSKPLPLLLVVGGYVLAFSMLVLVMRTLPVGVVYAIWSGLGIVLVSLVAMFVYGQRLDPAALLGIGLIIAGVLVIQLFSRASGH
Description: FIG. 5. (A) Ethidium bromide efflux from E. coli bacteria expressing Hsmr. Peptides were added to ethidium bromide (EtBr) treated cells and incubated for 1 hr. The fluorescence of EtBr drops as the toxin is effluxed from the cells. ‘No peptide’ (maximum efflux control) is depicted in black. The core sequences of the peptides studied are based on the consensus sequence in Table 1. Residues in red emphasize retention of the common SMR TM4-TM4 interface in pathogenic bacteria. (B) EtBr efflux from E. coli containing plasmid-borne SMR from P. aeruginosa, (Psmr), as mediated by peptide LIN (full sequence=Ac-A(Sar)3-^88IIGIALINAGVVV^100-KKK-NH2). This experiment was performed as described in FIG. 4.
EtBr efflux represents a rapid and validated means by which to screen for SMR-mediated resistance activity [Poulsen and Deber, 2012, Antimicrob. Agents Chemother. 56, 3911-3916]. Here, E. coli cells are incubated with the peptide, EtBr and carbonyl cyanide 3-chlorophenylhydrazone (CCCP), a widely-used ionophore that acts as a disruptor of the proton-motive force. Upon its removal, EtBr efflux is monitored by fluorescence decay.
In this context, we have recently performed two pilot studies. […]

[3] = system: E. coli (BL21 strain) overexpressing the SMR from P. aeruginosa (Psmr); assay: Resensitization of bacteria to growth inhibition by benzalkonium chloride (BZK); format: cell-based; details: for inhibition of bacterial growth, single agent: agent alone (sublethal BZK or non-toxic dose of peptide); for inhibition of bacterial growth, single agent / inhibition of bacterial growth, peptide together with BZK: result in words; for inhibition of bacterial growth, peptide together with BZK: sub-lethal concentration of BZK plus peptide
Description: FIG. 7. Resensitization of bacteria to growth inhibition by the disinfectant benzalkonium chloride (BZK). […] However, when the BZK and TM4 peptide were both present at the same concentrations, the bacterial growth was reduced to <1% [i.e., inhibited to >99% (arrow)]. As a control, the same experiment was performed with a ‘scrambled’ version of TM4 peptide (termed SCR control), having identical amino acid composition but lacking the GG7 motif for binding to Psmr and disruption of its native dimer. […] TM4 peptide=Ac-Ala-(Sar)3-[…]-KKK—NH2 (see also Table 1). SCR control peptide=Ac-Ala-(Sar)3-LLVLAGIGIIGLV-KKK—NH2.
Antimicrobial peptides are exciting leads in the development of novel biocidal agents. Such peptides are currently used commercially in topical formulations, such as the lipopeptides polymyxin B and daptomycin [Kalorama Information Market Intelligence Report, “Health Care Infection Control Market” (126 reports; published on-line May, 2016)]. […] 2013. p. 128]. Despite this, we are not aware of any reports of a peptide that inhibits and/or prevents bacterial resistance to BZK and to other biocide mainstays of hospital and health care facilities. In this context, we examined the ability of the prototypic inhibitor peptides described herein to resensitize pathogenic bacteria to BZK and related disinfectants.

E. coli = assay: EtBr resensitization assay; format: cell-based; details: sublethal toxicant plus peptide; FIG. 4B, result in words
Description: as §1
Resensitization to EtBr and other toxic SMR substrates are evaluated by incubating the bacteria with a sublethal concentration of the toxicant and twofold dilutions of peptide at 37° C. for 20 hr, after which bacterial growth (or lack thereof) is evaluated [Bellman-Sickert et al., 2015, J. Biol. Chem. 290, 1752-1759]. […]

[4] = sublethal BZK and non-toxic dose of peptide both present, FIG. 7

| Compound | hemolytic activity [1] | minimal hemolytic concentration (MHC) [1] [µM] | inhibition of Hsmr-mediated EtBr efflux (Hsmr) | inhibition of bacterial growth, single agent [3] | inhibition of bacterial growth, peptide together with BZK [3] | also measured |
| --- | --- | --- | --- | --- | --- | --- |
| CC[C@H](C)[C@H](NC(=O)[C@H](CC(C)C)NC(=O)[C@H](C)NC(=O)[C@H](CC(C)C)NC(=O)CNC(=O)[C@@H](NC(=O)[C@@H](NC(=O)CNC(=O)[C@H](C)NC(=O)[C@@H](NC(=O)CN(C)C(=O)CN(C)C(=O)CN(C)C(=O)[C@H](C)NC(C)=O)C(C)C)C(C)C)C(C)C)C(=O)N[C@H](C(=O)N[C@@H](C)C(=O)NCC(=O)N[C@H](C(=O)N[C@H](C(=O)N[C@H](C(=O)N[C@@H](CC(C)C)C(=O)N[C@@H](CC(N)=O)C(=O)N[C@H](C(=O)N[C@@H](C)C(=O)N[C@@H](CO)C(=O)N[C@@H](CCCCN)C(=O)N[C@@H](CCCCN)C(=O)N[C@@H](CCCCN)C(N)=O)C(C)C)C(C)C)C(C)C)C(C)C)C(C)C [TM4(85-105)] (Ac-A[Sar][Sar][Sar]VAGVVGLALIVAGVVVLNVASKKK-NH2) | partially hemolytic | ~10 | specifically inhibit Hsmr-mediated efflux |  |  |  |
| Ac-A(Sar)3-^88IIGIALINAGVVV^100-KKK-NH2 (Ac-A[Sar][Sar][Sar]IIGIALINAGVVVKKK-NH2; SMILES CC[C@H](C)[C@H](NC(=O)CNC(=O)[C@@H](NC(=O)[C@@H](NC(=O)CN(C)C(=O)CN(C)C(=O)CN(C)C(=O)[C@H](C)NC(C)=O)[C@@H](C)CC)[C@@H](C)CC)C(=O)N[C@@H](C)C(=O)N[C@@H](CC(C)C)C(=O)N[C@H](C(=O)N[C@@H](CC(N)=O)C(=O)N[C@@H](C)C(=O)NCC(=O)N[C@H](C(=O)N[C@H](C(=O)N[C@H](C(=O)N[C@@H](CCCCN)C(=O)N[C@@H](CCCCN)C(=O)N[C@@H](CCCCN)C(N)=O)C(C)C)C(C)C)C(C)C)[C@@H](C)CC) |  |  |  |  |  | inhibition of Psmr-mediated EtBr efflux [2]: inhibition of efflux |
| Ac-Ala-(Sar)3-LLVLAGIGIIGLV-KKK—NH2 (Ac-A[Sar][Sar][Sar]LLVLAGIGIIGLVKKK-NH2; SMILES CC[C@H](C)[C@H](NC(=O)CNC(=O)[C@H](C)NC(=O)[C@H](CC(C)C)NC(=O)[C@@H](NC(=O)[C@H](CC(C)C)NC(=O)[C@H](CC(C)C)NC(=O)CN(C)C(=O)CN(C)C(=O)CN(C)C(=O)[C@H](C)NC(C)=O)C(C)C)C(=O)NCC(=O)N[C@H](C(=O)N[C@H](C(=O)NCC(=O)N[C@@H](CC(C)C)C(=O)N[C@H](C(=O)N[C@@H](CCCCN)C(=O)N[C@@H](CCCCN)C(=O)N[C@@H](CCCCN)C(N)=O)C(C)C)[C@@H](C)CC)[C@@H](C)CC) [SCR peptide, scrambled version of TM4 peptide, identical composition but lacking the GG7 motif, reference compound] |  |  |  | neither the mixture of BZK+SCR peptide nor the SCR peptide alone inhibited bacterial growth | neither the mixture of BZK+SCR peptide nor the SCR peptide alone inhibited bacterial growth | inhibition of bacterial growth, peptide together with BZK ([3]; listed as ‘scrambled’ analog of the TM4 peptide): inactive |
| Ac-Ala-(Sar)3-LLGIGLIIAGVLV-KKK—NH2 (Ac-A[Sar][Sar][Sar]LLGIGLIIAGVLVKKK-NH2; SMILES CC[C@H](C)[C@H](NC(=O)CNC(=O)[C@H](CC(C)C)NC(=O)[C@H](CC(C)C)NC(=O)CN(C)C(=O)CN(C)C(=O)CN(C)C(=O)[C@H](C)NC(C)=O)C(=O)NCC(=O)N[C@@H](CC(C)C)C(=O)N[C@H](C(=O)N[C@H](C(=O)N[C@@H](C)C(=O)NCC(=O)N[C@H](C(=O)N[C@@H](CC(C)C)C(=O)N[C@H](C(=O)N[C@@H](CCCCN)C(=O)N[C@@H](CCCCN)C(=O)N[C@@H](CCCCN)C(N)=O)C(C)C)C(C)C)[C@@H](C)CC)[C@@H](C)CC) [TM4 peptide] |  |  |  | neither of which individually significantly inhibited bacterial growth | completely abolishes E. coli growth | bacterial growth [3, 4]: < 1%; inhibition of bacterial growth [3, 4]: > 99% |
| benzalkonium chloride [BZK, reference compound] |  |  |  | neither of which individually significantly inhibited bacterial growth |  |  |
| CC[C@H](C)[C@H](NC(=O)[C@H](CC(C)C)NC(=O)[C@H](C)NC(=O)[C@H](CC(C)C)NC(=O)CNC(=O)[C@@H](NC(=O)[C@@H](NC(=O)CN(C)C(=O)CN(C)C(=O)CN(C)C(=O)[C@H](C)NC(C)=O)C(C)C)C(C)C)C(=O)N[C@H](C(=O)N[C@@H](C)C(=O)NCC(=O)N[C@H](C(=O)N[C@H](C(=O)N[C@H](C(=O)N[C@@H](CCCCN)C(=O)N[C@@H](CCCCN)C(=O)N[C@@H](CCCCN)C(N)=O)C(C)C)C(C)C)C(C)C)C(C)C [TM4(88-100)] (Ac-A[Sar][Sar][Sar]VVGLALIVAGVVVKKK-NH2) | total absence of hemolysis | > 200 | significant efflux |  |  | EtBr resensitization (ER) (E. coli): excellent resensitization; inhibition of Hsmr-mediated EtBr efflux (Hsmr; listed as Hsmr TM4(88-100)): maintain SMR inhibitory function at levels comparable to the full-length TM4 peptide |
